In experiment [1] the target is PKCζ (Homo sapiens, UniProt Q05513). The following applies: radiolabeled PDBu at 4° C.; cited from earlier work.
Experiment [2] concerns the target native (untagged) murine PKCγ (Mus musculus, UniProt P63318). Nature of the experiment: FPCBA competition with probe 1, native PKCγ in HEK293 cells. In kind it is binding. On the set-up: For coexpression of full-length unmodified PKC proteins with mVenus as an independent marker; expressed in transfected cells; host or cells: HEK293 (transient, pIRES-mVenus). The conditions noted are these: read-out: Cellular Ki for native PKCγ (95% confidence interval); probe 1 400 nM, BIM1 2 μM, 2 h at 37° C.

For experiment [3], the target named is T1, native (untagged) murine PKCε (Mus musculus, UniProt P16054).
T1 sequence (P16054 1-737): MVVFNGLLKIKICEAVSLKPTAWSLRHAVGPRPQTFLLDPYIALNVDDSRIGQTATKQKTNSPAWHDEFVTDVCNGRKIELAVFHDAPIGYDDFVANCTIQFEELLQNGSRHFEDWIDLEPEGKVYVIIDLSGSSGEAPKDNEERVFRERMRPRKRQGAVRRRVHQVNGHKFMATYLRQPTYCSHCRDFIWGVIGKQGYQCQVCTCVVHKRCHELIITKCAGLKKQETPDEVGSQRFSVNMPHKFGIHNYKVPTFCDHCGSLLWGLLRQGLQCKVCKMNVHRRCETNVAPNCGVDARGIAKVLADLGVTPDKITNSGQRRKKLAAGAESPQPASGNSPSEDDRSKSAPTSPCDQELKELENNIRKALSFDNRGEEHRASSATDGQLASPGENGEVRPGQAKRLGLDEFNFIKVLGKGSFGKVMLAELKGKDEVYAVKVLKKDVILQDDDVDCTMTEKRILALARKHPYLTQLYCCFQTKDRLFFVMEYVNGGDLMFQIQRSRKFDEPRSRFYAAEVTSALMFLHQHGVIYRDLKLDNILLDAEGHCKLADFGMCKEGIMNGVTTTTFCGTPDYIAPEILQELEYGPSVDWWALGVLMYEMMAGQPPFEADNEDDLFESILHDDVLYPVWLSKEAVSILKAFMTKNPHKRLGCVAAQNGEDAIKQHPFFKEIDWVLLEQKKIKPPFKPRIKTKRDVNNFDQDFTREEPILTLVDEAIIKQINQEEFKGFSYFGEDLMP
Kind of experiment: FPCBA competition with probe 1, native PKCε in HEK293 cells. In kind it is binding. On the set-up: For coexpression of full-length unmodified PKC proteins with mVenus as an independent marker; expressed in transfected cells; host or cells: HEK293 (transient, pIRES-mVenus). The following applies: read-out: Cellular Ki for native PKCε (95% confidence interval); probe 1 400 nM, BIM1 2 μM, 2 h at 37° C.

Experiment [4] deals with native (untagged) murine PKCη (Mus musculus, UniProt P23298). Nature of the experiment: FPCBA competition with probe 1, native PKCη in HEK293 cells. In kind it is binding. On the set-up: expressed in transfected cells; host or cells: HEK293 (ATCC CRL-1573), transient transfection with pIRES-mVenus carrying the PKC gene. The following applies: read-out: Cellular Ki for native PKCη (95% confidence interval); probe 1 400 nM, BIM1 2 μM, 2 h at 37° C.

Experiment [5] addresses PKCε (Homo sapiens, UniProt Q02156). The conditions noted are these: radiolabeled PDBu at 4° C.; read-out: Biochemical Ki, PKCε; cited from earlier work.
Experiment [6] has as its target murine PKCδ-mVenus (Mus musculus, UniProt P28867). Kind of experiment: FPCBA saturation binding of probe 1, HEK293 cells expressing PKCδ-mVenus (Example 3).
The test system of experiment [7] is HEK293 cells expressing PKCβI-mVenus. Kind of experiment: Kinetics of uptake of probes in HEK293 cells transiently transfected with PKCβI-mVenus. It is filed as cell-based. The conditions noted are these: probe 1 μM, room temperature, BIM1 2 μM, 4% FBS. As for the experimental part: Cells were treated with probes and analyzed by flow cytometry. […] [BIM1]=2 μM. [FBS]=4%.
(§1) To investigate the potential for quantitative analysis of binding to PKCs expressed in cells, we evaluated whether 1-3 could readily achieve equilibrium, which is necessary for measurements of cellular equilibrium dissociation constants (Kd).
The cells were re-suspended in fresh reduced serum media lacking antibiotics (4% FBS) at a cell density of ˜500,000 cells per mL and were added to a 96-well plate (100 μL per well). […] Fluorescent probes were prepared as absorbance-normalized 1 mM DMSO stock solutions and diluted into reduced serum DMEM media lacking antibiotics (4% FBS) to achieve a final concentration of the probe of 1 μM ([…]). [BIM1]=2 μM. After addition of probes, cells were analyzed at room temperature every 5 min as singletons. Living cells with the greatest green fluorescence from expression of mVenus (top 20%, transfected) and the lowest green fluorescence (bottom 20%, non-transfected) were gated to obtain median PB450 values of uptake of the fluorescent probes. For the slower kinetics of uptake of probe 3, cells were analyzed every 20 min in triplicate. These curves were fitted with a one-phase association model (GraphPad Prism 9) to determine t1/2 values.

Experiment [8] addresses murine PKCγ-mVenus (Mus musculus, UniProt P63318). Nature of the experiment: FPCBA saturation binding of probe 1, HEK293 cells expressing PKCγ-mVenus (Example 3).
Experiment [9] has as its system Jurkat cells. Nature of the experiment: Cellular viability assay, Jurkat lymphocytes, 48 h, flow cytometry (Example 2). In kind it is cell-based. As for the experimental part: The impact of membrane transporters on the toxicity profile of 49 was also studied.
Jurkat lymphocytes were seeded into a 96-well plate in fresh complete medium at 2.5×10^5 cells/mL and 200 μL per well. All compounds were serial diluted in DMSO and added to complete media to achieve a 1:1000 dilution factor (0.10% DMSO in each well). […] The total cell-count for each well was determined by flow cytometry and staining with propidium iodide was used to identify populations of live cells (only dead cells are stained by PI). Counts of viable cells for each treatment, determined in triplicate, were used to generate dose-response curves. These curves were fitted with non-linear regression using an inhibitor vs. response variable slope […] model (GraphPad Prism 9) to determine IC50 values.

Experiment [10] addresses T2, murine PKCβI-mVenus (Mus musculus, UniProt P68404).
T2 construct: fused on or other part: mVenus at the C-terminus
Nature of the experiment: FPCBA saturation binding, HEK293 cells expressing PKCβI-mVenus (Example 3).
Source text: as §1

The Ki is the dissociation constant of the complex between target and ligand, obtained from inhibition or displacement. The term Kd denotes the concentration at which binding is half-saturated. A word on the IC50: it is the concentration that gives 50% inhibition.

A value given as a limit tells only on which side of the number the result lay.

T2 sequence (P68404 2-621 limits assumed): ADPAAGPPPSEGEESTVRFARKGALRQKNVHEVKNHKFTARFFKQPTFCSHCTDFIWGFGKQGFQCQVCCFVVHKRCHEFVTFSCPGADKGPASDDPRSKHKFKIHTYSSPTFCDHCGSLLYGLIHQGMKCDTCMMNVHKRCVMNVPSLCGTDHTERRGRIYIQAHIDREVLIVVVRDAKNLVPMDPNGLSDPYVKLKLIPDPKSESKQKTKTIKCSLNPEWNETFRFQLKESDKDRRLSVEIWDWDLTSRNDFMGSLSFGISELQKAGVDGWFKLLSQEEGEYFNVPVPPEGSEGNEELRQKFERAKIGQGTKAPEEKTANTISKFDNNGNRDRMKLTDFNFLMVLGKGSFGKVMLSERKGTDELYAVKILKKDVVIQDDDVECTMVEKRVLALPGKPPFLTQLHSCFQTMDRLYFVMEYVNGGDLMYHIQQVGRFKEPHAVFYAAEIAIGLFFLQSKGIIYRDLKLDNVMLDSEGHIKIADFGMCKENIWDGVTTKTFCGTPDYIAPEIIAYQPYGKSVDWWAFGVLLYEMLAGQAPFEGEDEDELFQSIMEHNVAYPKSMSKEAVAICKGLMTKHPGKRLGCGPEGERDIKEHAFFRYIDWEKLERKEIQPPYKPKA
Chain of PKCε (Q02156 whole entry): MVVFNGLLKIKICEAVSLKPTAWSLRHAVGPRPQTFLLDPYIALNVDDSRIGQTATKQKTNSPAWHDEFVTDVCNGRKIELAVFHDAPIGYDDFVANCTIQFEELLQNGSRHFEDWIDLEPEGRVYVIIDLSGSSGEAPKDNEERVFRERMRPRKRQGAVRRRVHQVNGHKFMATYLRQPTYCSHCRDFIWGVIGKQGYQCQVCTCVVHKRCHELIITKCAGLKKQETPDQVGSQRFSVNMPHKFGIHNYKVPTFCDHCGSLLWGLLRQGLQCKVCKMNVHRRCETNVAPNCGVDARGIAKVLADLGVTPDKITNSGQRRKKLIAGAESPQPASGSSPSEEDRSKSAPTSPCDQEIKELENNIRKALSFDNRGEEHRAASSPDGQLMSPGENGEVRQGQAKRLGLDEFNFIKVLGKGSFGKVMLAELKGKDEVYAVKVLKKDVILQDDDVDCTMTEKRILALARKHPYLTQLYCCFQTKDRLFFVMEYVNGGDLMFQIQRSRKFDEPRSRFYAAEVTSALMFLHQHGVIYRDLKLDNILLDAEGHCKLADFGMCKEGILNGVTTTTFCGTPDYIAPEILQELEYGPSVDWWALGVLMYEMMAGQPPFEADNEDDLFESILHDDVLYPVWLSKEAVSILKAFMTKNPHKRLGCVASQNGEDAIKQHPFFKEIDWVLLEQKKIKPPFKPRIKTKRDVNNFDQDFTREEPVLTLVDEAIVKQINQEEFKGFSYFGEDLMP
Chain of murine PKCδ-mVenus (P28867 whole entry): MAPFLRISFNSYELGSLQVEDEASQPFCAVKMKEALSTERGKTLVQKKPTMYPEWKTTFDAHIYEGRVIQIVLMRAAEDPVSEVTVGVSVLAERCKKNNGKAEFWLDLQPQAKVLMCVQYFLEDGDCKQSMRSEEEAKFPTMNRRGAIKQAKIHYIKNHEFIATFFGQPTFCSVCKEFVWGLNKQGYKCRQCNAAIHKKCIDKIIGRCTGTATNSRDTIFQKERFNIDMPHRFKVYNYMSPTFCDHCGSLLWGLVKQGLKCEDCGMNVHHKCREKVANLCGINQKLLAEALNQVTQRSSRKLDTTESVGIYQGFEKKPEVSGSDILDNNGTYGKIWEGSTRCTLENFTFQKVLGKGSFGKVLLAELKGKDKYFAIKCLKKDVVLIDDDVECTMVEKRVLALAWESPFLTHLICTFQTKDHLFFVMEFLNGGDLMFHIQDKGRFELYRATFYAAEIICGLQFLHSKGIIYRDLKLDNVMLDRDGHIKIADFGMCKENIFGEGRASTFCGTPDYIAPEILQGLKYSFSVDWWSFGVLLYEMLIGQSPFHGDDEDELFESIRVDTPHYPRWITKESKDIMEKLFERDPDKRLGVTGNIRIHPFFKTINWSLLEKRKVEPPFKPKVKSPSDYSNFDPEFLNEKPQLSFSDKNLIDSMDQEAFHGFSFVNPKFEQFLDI
Chain of native (untagged) murine PKCη (P23298 whole entry): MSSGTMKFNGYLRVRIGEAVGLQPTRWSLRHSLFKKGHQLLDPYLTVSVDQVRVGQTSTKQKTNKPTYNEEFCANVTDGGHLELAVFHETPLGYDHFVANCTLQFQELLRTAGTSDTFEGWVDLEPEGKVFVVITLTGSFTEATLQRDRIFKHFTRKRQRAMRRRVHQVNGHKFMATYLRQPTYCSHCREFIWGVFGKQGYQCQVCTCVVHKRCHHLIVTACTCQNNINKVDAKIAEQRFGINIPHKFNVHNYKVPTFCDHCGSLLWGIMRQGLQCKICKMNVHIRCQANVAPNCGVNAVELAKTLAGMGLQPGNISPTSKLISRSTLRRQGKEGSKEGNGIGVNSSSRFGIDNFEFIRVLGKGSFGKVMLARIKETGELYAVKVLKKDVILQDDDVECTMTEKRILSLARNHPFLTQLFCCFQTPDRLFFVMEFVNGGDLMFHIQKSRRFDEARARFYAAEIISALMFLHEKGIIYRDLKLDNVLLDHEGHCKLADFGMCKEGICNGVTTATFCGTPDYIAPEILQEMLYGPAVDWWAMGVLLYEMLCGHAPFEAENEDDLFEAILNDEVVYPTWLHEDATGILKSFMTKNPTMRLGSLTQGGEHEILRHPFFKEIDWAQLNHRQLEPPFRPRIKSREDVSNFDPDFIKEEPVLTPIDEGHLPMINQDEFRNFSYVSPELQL
Chain of PKCζ (Q05513 whole entry): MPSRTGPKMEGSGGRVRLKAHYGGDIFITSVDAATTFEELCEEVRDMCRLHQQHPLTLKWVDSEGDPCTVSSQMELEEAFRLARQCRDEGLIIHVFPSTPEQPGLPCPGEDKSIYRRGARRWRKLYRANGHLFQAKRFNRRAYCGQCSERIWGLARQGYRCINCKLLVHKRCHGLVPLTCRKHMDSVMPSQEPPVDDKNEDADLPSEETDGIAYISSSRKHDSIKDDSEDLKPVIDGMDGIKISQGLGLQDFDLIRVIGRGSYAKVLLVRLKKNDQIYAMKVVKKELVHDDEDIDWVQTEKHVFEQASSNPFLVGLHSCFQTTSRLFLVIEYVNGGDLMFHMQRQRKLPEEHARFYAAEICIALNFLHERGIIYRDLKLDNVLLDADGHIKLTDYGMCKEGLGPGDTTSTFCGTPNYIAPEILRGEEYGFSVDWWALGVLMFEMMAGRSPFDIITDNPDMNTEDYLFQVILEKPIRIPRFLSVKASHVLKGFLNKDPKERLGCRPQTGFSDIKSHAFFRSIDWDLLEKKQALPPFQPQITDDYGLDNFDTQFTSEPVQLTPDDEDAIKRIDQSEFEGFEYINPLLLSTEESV

On to `CCC/C=C/C=C/C(=O)O[C@H]1/C(=C/C(=O)OC)C[C@H]2C[C@H]([C@@H](C)O)OC(=O)C[C@H](O)C[C@@H]3C[C@H](OC(C)=O)C(C)(C)[C@](O)(C[C@@H]4C/C(=C/C(=O)OC)C[C@H](/C=C/C(C)(C)[C@]1(O)O2)O4)O3` [bryostatin 1], for which the “Biochemical Ki, PKCζ” value in [1] is listed as “No binding”. The Ki in experiment [2] is 8 nM; in [3], 16 nM; in experiment [4], 9 nM; in experiment [5], 3 nM.

In the case of `CCCCCCN(CCCCCCCCCCCCNC(=O)c1cc2cc(F)c(O)c(F)c2oc1=O)C(=O)O[C@@]12[C@H](O)[C@@H](C)[C@@]3(O)[C@@H](C=C(CO)C[C@]4(O)C(=O)C(C)=C[C@@H]34)[C@@H]1C2(C)C` [probe 1, (1aR,1bS,4aR,7aS,7bS,8R,9R,9aS)-4a,7b,9-trihydroxy-3-(hydroxymethyl)-1,1,6,8-tetramethyl-5-oxo-1,1a,1b,4,4a,5,7a,7b,8,9-decahydro-9aH-cyclopropa[3,4]benzo[1,2-e]azulen-9a-yl (12-(6,8-difluoro-7-hydroxy-2-oxo-2H-chromene-3-carboxamido)dodecyl)(hexyl)carbamate], the Kd in experiment [6] stood at 657 ± 254 nM; in experiment [8], 391 ± 142 nM; in experiment [10] (BIM1 2 μM, 2 h at 37° C., 4% FBS, read-out: Cellular Kd for probe, PKCβI-mVenus), 200 nM. Besides, the “half-time (t1/2) of cellular uptake in transfected cells” value in [7] came to 4 min. Moreover, the “activity relative to 33” value in experiment [9] is reported as over 20 fold. Also, in experiment [9] (Homo sapiens, Jurkat, read-out: toxicity towards Jurkat cells, IC50), the IC50 was determined as 500 nM. Further, in experiment [10] (1 at 1 μM, 2 h, BIM1 2 μM), the “median blue fluorescence of cells expressing high levels of PKCβI-mVenus vs non-transfected cells” value was “ca. 4 fold”. Also, the “signal-to-background (S/B)” value in experiment [10] (with BIM1, 1.25 μM probe) is 2.9. Also, in [10] (with vs without BIM1), the “improvement of apparent cellular affinity for PKCβI by BIM1” value is about 2 fold.

The values are drawn from patent publication US20230146870A1, “METHOD TO QUANTIFY AFFINITY AND SELECTIVITY OF SMALL MOLECULES FOR PROTEINS IN LIVING CELLS” (Ohio State Innovation Foundation, priority 2021, published 2023).
